# Source: ChEMBL document CHEMBL4417636, “Small molecule inhibitors of pendrin ion exchange and pharmaceutical compositions” (2017)
# Active and inactive are the calls of the source. No cut-off for these calls is given here.
# Assays:
# Homo sapiens = species: Homo sapiens; test: Effect on airway surface liquid depth in human CFBE at 25 uM by rhodamine B-dextran fluorescence based confocal microscopy; assay type: functional
# [1] = target: T1, Solute carrier family 12 member 2 (Homo sapiens) (UniProt P55011); test: Inhibition of human NKCC1 expressed in COS7 co-expressing EYFP-HIF assessed as effect on I(-) gradient at 25 uM by YFP-based fluorescence quenching assay
# T1 sequence (whole entry): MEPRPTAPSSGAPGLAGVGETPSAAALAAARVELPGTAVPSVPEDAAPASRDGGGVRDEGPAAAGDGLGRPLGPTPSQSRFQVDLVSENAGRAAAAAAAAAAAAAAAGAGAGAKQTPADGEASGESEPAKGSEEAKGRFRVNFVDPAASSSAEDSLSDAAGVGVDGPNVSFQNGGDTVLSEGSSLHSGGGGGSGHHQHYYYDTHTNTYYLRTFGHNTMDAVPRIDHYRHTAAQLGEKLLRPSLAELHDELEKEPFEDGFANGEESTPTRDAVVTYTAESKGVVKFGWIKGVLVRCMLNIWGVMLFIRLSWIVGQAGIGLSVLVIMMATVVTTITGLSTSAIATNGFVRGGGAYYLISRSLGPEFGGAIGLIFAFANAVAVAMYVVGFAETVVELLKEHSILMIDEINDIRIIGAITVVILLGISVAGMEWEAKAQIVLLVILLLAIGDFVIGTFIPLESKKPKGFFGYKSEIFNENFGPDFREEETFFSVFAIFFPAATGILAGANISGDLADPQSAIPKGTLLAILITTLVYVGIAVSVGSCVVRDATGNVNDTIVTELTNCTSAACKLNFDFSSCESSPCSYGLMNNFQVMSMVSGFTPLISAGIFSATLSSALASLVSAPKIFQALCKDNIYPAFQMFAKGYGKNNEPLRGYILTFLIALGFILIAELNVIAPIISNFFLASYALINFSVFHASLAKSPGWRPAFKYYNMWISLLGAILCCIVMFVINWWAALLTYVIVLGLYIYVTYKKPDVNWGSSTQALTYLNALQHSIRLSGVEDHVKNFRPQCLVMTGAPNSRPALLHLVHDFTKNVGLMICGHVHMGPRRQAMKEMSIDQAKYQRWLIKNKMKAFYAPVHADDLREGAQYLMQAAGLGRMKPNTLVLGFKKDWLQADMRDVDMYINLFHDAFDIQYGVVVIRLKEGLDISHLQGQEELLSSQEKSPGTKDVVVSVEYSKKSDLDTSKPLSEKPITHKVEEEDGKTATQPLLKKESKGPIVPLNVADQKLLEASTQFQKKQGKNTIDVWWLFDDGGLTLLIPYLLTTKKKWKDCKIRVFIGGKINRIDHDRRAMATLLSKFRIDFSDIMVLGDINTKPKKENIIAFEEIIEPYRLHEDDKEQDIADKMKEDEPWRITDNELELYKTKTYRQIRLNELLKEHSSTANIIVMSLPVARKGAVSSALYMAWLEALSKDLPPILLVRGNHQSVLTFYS
Structure (SMILES),Activity (Homo sapiens),inhibition [1]
Cn1nc(COc2cccc(F)c2)c2c1CCN(C(=O)Nc1ccc(Cl)cc1)C2,inactive,
Cc1n[nH]c(-c2cc(S(=O)(=O)NC3CCCc4ccccc43)c(C)s2)c1C (configuration not stated),,inactive
